Laboratory results taken from the kinase profiling compilation of Christmann-Franck et al. (2016).

How the values were obtained:
Experiment in all cases: KINOMEscan competition binding
PDGFRB (human) = PDGFRB (human) (UniProt P09619); settings: compound 10.0 µM
DYRK1B (human) = DYRK1B (human) (UniProt Q9Y463); settings: compound 10.0 µM
RIPK2 (human) = RIPK2 (human) (UniProt O43353); settings: compound 10.0 µM
ULK2 (human) = ULK2 (human) (UniProt Q8IYT8)
CAMKK2 (human) = CAMKK2 (human) (UniProt Q96RR4); settings: compound 10.0 µM
TTK (human) = TTK (human) (UniProt P33981); settings: compound 10.0 µM
[1] = test system: EGFR (human), P00533 [G719S]; settings: compound 10.0 µM
CLK3 (human) = CLK3 (human) (UniProt P49761); settings: compound 10.0 µM
RIPK4 (human) = RIPK4 (human) (UniProt P57078); settings: compound 10.0 µM
MYLK (human) = MYLK (human) (UniProt Q15746); settings: compound 10.0 µM
DAPK2 (human) = DAPK2 (human) (UniProt Q9UIK4)
MAP4K2 (human) = MAP4K2 (human) (UniProt Q12851); settings: compound 10.0 µM
CSNK1G1 (human) = CSNK1G1 (human) (UniProt Q9HCP0); settings: compound 10.0 µM
CSNK1G3 (human) = CSNK1G3 (human) (UniProt Q9Y6M4); settings: compound 10.0 µM
KIT (human) = KIT (human) (UniProt P10721); settings: compound 10.0 µM
NEK2 (human) = NEK2 (human) (UniProt P51955); settings: compound 10.0 µM
MKNK1 (human) = MKNK1 (human) (UniProt Q9BUB5); settings: compound 10.0 µM
PIM2 (human) = PIM2 (human) (UniProt Q9P1W9); settings: compound 10.0 µM
MAP4K4 (human) = MAP4K4 (human) (UniProt O95819); settings: compound 10.0 µM
HIPK1 (human) = HIPK1 (human) (UniProt Q86Z02); settings: compound 10.0 µM
PIP5K1A (human) = PIP5K1A (human) (UniProt Q99755); settings: compound 10.0 µM
MELK (human) = MELK (human) (UniProt Q14680); settings: compound 10.0 µM
STK17A (human) = STK17A (human) (UniProt Q9UEE5)
[2] = test system: KIT (human), P10721 [D816V]; settings: compound 10.0 µM
STK17B (human) = STK17B (human) (UniProt O94768)
CAMKK1 (human) = CAMKK1 (human) (UniProt Q8N5S9); settings: compound 10.0 µM
[3] = molecular target: JAK1 JH2 pseudokinase (human) (UniProt P23458); settings: compound 10.0 µM
STK16 (human) = STK16 (human) (UniProt O75716); settings: compound 10.0 µM
PLK4 (human) = PLK4 (human) (UniProt O00444); settings: compound 10.0 µM
ACVR1 (human) = ACVR1 (human) (UniProt Q04771); settings: compound 10.0 µM
[4] = test system: FLT3 (human), P36888 [D835H]; settings: compound 10.0 µM
FLT3 (human) = FLT3 (human) (UniProt P36888); settings: compound 10.0 µM
PIM1 (human) = PIM1 (human) (UniProt P11309)
MAP3K5 (human) = MAP3K5 (human) (UniProt Q99683); settings: compound 10.0 µM
[5] = molecular target: JAK3 JH1 catalytic (human) (UniProt P52333); settings: compound 10.0 µM
RPS6KA6 KD2 (human) = RPS6KA6 KD2 (human) (UniProt Q9UK32); settings: compound 10.0 µM
MAP2K3 (human) = MAP2K3 (human) (UniProt P46734); settings: compound 10.0 µM
[6] = test system: KIT (human), P10721 [V559D/T670I]; settings: compound 10.0 µM
RIOK2 (human) = RIOK2 (human) (UniProt Q9BVS4); settings: compound 10.0 µM
CSNK1D (human) = CSNK1D (human) (UniProt P48730); settings: compound 10.0 µM
MYLK3 (human) = MYLK3 (human) (UniProt Q32MK0); settings: compound 10.0 µM

Chain of PIM1 (human) (P11309 whole entry, looked up): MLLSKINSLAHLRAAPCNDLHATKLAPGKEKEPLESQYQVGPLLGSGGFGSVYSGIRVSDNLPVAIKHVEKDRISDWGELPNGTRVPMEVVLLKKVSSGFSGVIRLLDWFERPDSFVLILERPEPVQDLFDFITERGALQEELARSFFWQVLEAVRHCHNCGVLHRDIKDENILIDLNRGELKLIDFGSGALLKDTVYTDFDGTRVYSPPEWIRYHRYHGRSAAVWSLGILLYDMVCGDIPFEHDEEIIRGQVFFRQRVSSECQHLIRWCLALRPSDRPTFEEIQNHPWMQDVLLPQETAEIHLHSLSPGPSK
Chain of DAPK2 (human) (Q9UIK4 whole entry, looked up): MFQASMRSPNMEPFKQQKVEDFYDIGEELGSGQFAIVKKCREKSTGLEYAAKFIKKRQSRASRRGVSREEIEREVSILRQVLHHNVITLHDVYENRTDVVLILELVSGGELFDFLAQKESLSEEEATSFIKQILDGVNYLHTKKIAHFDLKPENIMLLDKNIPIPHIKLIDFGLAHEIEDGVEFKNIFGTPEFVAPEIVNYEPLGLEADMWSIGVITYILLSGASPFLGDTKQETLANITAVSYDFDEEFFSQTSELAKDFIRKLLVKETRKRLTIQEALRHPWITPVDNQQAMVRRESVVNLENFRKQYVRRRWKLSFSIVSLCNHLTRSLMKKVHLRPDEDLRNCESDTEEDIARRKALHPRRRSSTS
Chain of STK17A (human) (Q9UEE5 whole entry, looked up): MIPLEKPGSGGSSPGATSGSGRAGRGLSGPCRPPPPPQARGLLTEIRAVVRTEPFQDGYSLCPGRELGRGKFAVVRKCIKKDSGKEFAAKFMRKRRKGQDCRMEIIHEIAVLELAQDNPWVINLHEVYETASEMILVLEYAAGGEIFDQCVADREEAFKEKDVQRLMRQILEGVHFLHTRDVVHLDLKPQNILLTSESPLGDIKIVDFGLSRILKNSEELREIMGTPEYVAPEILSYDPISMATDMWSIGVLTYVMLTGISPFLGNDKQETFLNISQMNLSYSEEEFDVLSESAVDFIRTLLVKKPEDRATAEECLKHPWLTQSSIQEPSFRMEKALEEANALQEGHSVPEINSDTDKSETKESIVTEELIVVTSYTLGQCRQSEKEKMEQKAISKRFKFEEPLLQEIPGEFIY
Chain of ULK2 (human) (Q8IYT8 whole entry, looked up): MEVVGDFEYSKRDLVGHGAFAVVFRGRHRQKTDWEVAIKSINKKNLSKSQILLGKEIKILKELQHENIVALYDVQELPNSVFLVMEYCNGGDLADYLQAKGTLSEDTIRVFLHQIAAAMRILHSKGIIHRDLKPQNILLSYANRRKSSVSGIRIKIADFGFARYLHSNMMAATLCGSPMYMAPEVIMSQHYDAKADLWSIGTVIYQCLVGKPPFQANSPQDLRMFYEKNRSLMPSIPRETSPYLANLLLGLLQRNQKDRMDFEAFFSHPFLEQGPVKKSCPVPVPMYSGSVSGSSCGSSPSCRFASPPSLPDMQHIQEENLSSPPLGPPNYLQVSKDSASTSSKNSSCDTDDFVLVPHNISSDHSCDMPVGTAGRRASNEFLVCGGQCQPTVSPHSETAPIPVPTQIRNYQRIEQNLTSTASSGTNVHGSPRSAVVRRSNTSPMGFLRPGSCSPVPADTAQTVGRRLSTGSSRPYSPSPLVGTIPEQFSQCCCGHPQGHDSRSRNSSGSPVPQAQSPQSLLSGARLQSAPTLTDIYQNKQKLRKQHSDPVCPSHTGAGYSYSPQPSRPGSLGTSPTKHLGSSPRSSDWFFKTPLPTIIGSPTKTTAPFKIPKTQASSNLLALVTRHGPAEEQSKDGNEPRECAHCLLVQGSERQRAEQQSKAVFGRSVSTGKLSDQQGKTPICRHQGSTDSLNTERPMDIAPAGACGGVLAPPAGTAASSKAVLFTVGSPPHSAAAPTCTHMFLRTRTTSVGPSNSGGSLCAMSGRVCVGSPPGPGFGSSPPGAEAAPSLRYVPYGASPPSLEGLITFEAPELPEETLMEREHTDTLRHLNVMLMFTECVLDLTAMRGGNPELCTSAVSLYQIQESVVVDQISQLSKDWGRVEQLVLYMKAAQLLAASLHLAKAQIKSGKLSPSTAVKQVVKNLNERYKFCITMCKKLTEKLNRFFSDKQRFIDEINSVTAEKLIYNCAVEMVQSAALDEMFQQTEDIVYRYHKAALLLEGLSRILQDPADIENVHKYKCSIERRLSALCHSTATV
Chain of STK17B (human) (O94768 whole entry, looked up): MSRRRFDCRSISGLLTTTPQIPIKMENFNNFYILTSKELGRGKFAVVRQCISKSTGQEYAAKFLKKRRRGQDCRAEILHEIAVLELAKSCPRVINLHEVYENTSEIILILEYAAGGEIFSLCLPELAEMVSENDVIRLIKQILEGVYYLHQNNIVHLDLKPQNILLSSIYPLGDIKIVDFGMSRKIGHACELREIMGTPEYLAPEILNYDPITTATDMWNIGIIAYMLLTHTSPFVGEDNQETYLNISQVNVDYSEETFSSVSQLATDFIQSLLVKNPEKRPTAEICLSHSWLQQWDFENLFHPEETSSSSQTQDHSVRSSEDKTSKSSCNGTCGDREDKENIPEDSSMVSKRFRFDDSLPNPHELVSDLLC
Chain of CSNK1D (human) (P48730 whole entry, looked up): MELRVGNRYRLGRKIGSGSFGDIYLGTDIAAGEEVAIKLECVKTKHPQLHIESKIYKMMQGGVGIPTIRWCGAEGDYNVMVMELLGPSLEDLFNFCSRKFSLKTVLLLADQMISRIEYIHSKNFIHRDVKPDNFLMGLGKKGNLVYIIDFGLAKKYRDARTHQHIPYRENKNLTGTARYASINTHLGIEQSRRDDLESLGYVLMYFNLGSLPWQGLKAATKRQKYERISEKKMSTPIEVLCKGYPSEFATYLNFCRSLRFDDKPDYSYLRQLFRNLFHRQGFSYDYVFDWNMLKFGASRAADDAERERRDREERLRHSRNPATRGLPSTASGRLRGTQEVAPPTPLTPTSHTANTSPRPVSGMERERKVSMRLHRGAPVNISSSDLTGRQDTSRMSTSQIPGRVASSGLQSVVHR
Chain of MYLK (human) (Q15746 whole entry, looked up): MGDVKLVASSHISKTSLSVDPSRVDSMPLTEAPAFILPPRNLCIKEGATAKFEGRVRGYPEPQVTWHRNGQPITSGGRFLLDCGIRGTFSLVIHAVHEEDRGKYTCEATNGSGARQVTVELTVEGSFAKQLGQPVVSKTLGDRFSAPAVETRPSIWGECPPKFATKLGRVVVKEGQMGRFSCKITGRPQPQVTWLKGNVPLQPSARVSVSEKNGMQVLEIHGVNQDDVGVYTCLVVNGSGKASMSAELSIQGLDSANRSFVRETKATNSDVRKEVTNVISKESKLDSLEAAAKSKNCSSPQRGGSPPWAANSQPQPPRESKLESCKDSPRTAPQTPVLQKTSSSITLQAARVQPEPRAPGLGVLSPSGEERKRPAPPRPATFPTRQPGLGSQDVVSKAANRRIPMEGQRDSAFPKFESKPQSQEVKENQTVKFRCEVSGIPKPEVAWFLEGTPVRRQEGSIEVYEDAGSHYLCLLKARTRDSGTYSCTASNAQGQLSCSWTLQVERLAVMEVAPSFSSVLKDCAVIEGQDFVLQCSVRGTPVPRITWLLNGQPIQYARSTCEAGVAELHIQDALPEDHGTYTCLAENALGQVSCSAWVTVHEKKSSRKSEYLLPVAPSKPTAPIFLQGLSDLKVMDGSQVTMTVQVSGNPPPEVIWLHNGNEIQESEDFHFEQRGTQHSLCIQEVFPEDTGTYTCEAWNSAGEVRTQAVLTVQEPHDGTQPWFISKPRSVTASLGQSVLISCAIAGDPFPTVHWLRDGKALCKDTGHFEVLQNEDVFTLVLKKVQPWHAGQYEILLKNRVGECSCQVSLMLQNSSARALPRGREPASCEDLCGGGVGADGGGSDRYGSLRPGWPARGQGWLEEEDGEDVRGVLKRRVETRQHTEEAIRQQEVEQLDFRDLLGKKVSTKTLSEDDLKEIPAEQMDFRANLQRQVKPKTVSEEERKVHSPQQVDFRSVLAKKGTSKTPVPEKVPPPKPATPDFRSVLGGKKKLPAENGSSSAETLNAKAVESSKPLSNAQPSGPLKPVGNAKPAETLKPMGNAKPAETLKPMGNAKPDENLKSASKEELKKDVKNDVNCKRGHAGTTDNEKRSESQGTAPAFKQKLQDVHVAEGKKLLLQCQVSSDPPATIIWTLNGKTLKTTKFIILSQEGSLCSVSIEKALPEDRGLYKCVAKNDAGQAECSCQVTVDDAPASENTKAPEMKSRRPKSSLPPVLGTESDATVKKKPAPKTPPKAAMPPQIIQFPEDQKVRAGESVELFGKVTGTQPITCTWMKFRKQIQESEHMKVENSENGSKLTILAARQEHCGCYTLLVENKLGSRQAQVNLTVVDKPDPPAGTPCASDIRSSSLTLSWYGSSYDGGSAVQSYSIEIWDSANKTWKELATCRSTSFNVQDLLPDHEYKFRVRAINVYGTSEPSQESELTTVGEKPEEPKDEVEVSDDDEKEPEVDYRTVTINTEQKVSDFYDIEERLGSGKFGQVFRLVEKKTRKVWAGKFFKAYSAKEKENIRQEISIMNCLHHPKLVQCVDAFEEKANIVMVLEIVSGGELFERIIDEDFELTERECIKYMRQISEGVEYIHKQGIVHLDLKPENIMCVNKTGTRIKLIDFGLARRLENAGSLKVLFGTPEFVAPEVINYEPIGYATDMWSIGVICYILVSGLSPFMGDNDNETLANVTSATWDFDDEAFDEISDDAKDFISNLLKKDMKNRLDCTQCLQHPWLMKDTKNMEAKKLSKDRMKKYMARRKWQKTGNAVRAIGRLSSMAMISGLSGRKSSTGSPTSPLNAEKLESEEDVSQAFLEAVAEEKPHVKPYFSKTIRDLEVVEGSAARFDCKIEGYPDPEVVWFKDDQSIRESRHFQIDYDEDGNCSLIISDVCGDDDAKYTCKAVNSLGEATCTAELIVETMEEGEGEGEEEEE

Structure (SMILES): O=C1NC(=O)/C(=C/c2c[nH]c(=O)c(-c3ccc(N4CCNCC4)nc3)c2)S1
- kinase still bound, per cent of control (PDGFRB (human)): 67%
- kinase still bound, per cent of control (DYRK1B (human)): 3%
- kinase still bound, per cent of control (RIPK2 (human)): 9.9%
- Kd (ULK2 (human)): 220 nM
- kinase still bound, per cent of control (ULK2 (human); compound 10.0 µM): 0.85%
- kinase still bound, per cent of control (CAMKK2 (human)): 31%
- kinase still bound, per cent of control (TTK (human)): 59%
- kinase still bound, per cent of control [1]: 58%
- kinase still bound, per cent of control (CLK3 (human)): 2.8%
- kinase still bound, per cent of control (RIPK4 (human)): 100%
- kinase still bound, per cent of control (MYLK (human)): 42%
- Kd (DAPK2 (human)): 6.1 nM
- kinase still bound, per cent of control (DAPK2 (human); compound 10.0 µM): 0.5%
- kinase still bound, per cent of control (MAP4K2 (human)): 32%
- kinase still bound, per cent of control (CSNK1G1 (human)): 35%
- kinase still bound, per cent of control (CSNK1G3 (human)): 3.2%
- kinase still bound, per cent of control (KIT (human)): 82%
- kinase still bound, per cent of control (NEK2 (human)): 13%
- kinase still bound, per cent of control (MKNK1 (human)): 80%
- kinase still bound, per cent of control (PIM2 (human)): 1.1%
- kinase still bound, per cent of control (MAP4K4 (human)): 4.9%
- kinase still bound, per cent of control (HIPK1 (human)): 3.5%
- kinase still bound, per cent of control (PIP5K1A (human)): 28%
- kinase still bound, per cent of control (MELK (human)): 24%
- Kd (STK17A (human)): 190 nM
- kinase still bound, per cent of control (STK17A (human); compound 10.0 µM): 0.05%
- kinase still bound, per cent of control [2]: 76%
- Kd (STK17B (human)): 130 nM
- kinase still bound, per cent of control (STK17B (human); compound 10.0 µM): 0.15%
- kinase still bound, per cent of control (CAMKK1 (human)): 14%
- kinase still bound, per cent of control [3]: 64%
- kinase still bound, per cent of control (STK16 (human)): 36%
- kinase still bound, per cent of control (PLK4 (human)): 90%
- kinase still bound, per cent of control (ACVR1 (human)): 20%
- kinase still bound, per cent of control [4]: 71%
- kinase still bound, per cent of control (FLT3 (human)): 91%
- Kd (PIM1 (human)): 37 nM
- kinase still bound, per cent of control (PIM1 (human); compound 10.0 µM): 0.95%
- kinase still bound, per cent of control (MAP3K5 (human)): 100%
- kinase still bound, per cent of control [5]: 4%
- kinase still bound, per cent of control (RPS6KA6 KD2 (human)): 29%
- kinase still bound, per cent of control (MAP2K3 (human)): 65%
- kinase still bound, per cent of control [6]: 72%
- kinase still bound, per cent of control (RIOK2 (human)): 66%
- kinase still bound, per cent of control (CSNK1D (human)): 13%
- kinase still bound, per cent of control (MYLK3 (human)): 2.6%
